Laboratory results published in article PMC3867380, “Fluorescence Imaging-Based High-Throughput Screening of Fast- and Slow-Cycling LOV Proteins” (PLoS ONE, 2013).

Columns and labels:
[1] = target: T1, AsLOV2 (second LOV domain of Avena sativa phototropin 1) (Avena sativa, UniProt O49003); assay: absorption and fluorescence spectra of co-purified flavin; photoadduct formation and dark recovery at […] nm; assay type: binding; details: room temperature; pH 7.5; flavin co-purified from E. coli; blue-light-induced reversible covalent adduct with Cys450
T1 construct: gene NPH1-1; LOV2 domain with J-alpha helix, residues 404-560; N-terminal 6xHis tag; synthetic cDNA with mammalian codons in pCold I; E. coli DH5alpha; TALON purified

[2] = target: T2, AsLOV2 (second LOV domain of Avena sativa phototropin 1) (Avena sativa, UniProt O49003, V416T/T418S); assay: flavin fluorescence recovery imaging in E. coli colonies after blue light; assay type: cell-based; details: colonies on agar, on ice and 25 °C; endogenous flavin; blue-light-induced reversible covalent adduct
T2 construct: gene NPH1-1; LOV2 domain with J-alpha helix, residues 404-560; N-terminal 6xHis tag; synthetic cDNA with mammalian codons in pCold I; E. coli DH5alpha; TALON purified

[3] = target: T3, AsLOV2 (second LOV domain of Avena sativa phototropin 1) (Avena sativa, UniProt O49003, V416C/T418P/N425P/I466V/F494K); assay: as above; assay type: cell-based; details: colonies on agar, 50 °C and 25 °C; endogenous flavin; blue-light-induced reversible covalent adduct
T3 construct: gene NPH1-1; LOV2 domain with J-alpha helix, residues 404-560; N-terminal 6xHis tag; synthetic cDNA with mammalian codons in pCold I; E. coli DH5alpha; TALON purified

[4] = target: T4, AsLOV2 (second LOV domain of Avena sativa phototropin 1) (Avena sativa, UniProt O49003, N425Q/I427V); assay: as above; assay type: cell-based; details: colonies on agar, on ice and 25 °C; endogenous flavin; blue-light-induced reversible covalent adduct
T4 construct: gene NPH1-1; LOV2 domain with J-alpha helix, residues 404-560; N-terminal 6xHis tag; synthetic cDNA with mammalian codons in pCold I; E. coli DH5alpha; TALON purified

[5] = target: T5, AsLOV2 (second LOV domain of Avena sativa phototropin 1) (Avena sativa, UniProt O49003, N425S/I427L/I466M); assay: as above; assay type: cell-based; details: colonies on agar, on ice and 25 °C; endogenous flavin; blue-light-induced reversible covalent adduct
T5 construct: gene NPH1-1; LOV2 domain with J-alpha helix, residues 404-560; N-terminal 6xHis tag; synthetic cDNA with mammalian codons in pCold I; E. coli DH5alpha; TALON purified
T5 sequence (O49003 entry or part of it N425S/I427L/I466M): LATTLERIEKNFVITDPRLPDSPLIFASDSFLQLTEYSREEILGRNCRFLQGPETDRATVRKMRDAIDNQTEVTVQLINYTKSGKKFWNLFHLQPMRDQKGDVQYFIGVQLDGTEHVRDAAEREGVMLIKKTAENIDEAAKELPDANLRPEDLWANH

T2 sequence (O49003 entry or part of it V416T/T418S): as the sequence (O49003 entry or part of it N425S/I427L/I466M) above, with V13T, T15S, S22N, L24I, M63I counted along it
T1 sequence (O49003 entry or part of it): as the sequence (O49003 entry or part of it N425S/I427L/I466M) above, with S22N, L24I, M63I counted along it
T3 sequence (O49003 entry or part of it V416C/T418P/N425P/I466V/F494K): as the sequence (O49003 entry or part of it N425S/I427L/I466M) above, with V13C, T15P, S22P, L24I, M63V, F91K counted along it
T4 sequence (O49003 entry or part of it N425Q/I427V): as the sequence (O49003 entry or part of it N425S/I427L/I466M) above, with S22Q, L24V, M63I counted along it

Compound: Cc1cc2nc3c(=O)[nH]c(=O)nc-3n(C[C@H](O)[C@H](O)[C@H](O)COP(=O)(O)O)c2cc1C [FMN]
- absorption and fluorescence spectra of co-purified flavin; photoadduct formation [1]: AsLOV2 is a photosensory domain that binds with FMN as a cofactor
- flavin fluorescence recovery imaging in E. coli colonies after blue light [2]: V416T/T418S exhibited particularly faster thermal reversion kinetics than others
- flavin fluorescence recovery imaging in E. coli colonies after blue light [3]: AsLOV2-V416L and AsLOV2-V416C/T418P/N425P/I466V/F494K exhibited particularly slower thermal reversion kinetics than others
- flavin fluorescence recovery imaging in E. coli colonies after blue light [4]: substitution of V416T, N425Q/I427V, N425S/I427L/I466M and V416T/T418S exhibited particularly faster thermal reversion kinetics
- flavin fluorescence recovery imaging in E. coli colonies after blue light [5]: substitution of V416T, N425Q/I427V, N425S/I427L/I466M and V416T/T418S exhibited particularly faster thermal reversion kinetics
